Results published in patent US11382328B2, “Rapid drug discovery methods for pathogen inactivation” (priority 2019, dated 2022).

Test system: E. coli strain W3110
Assay: Synergy assays: Biolog chemical sensitivity panels with Group IB metal, coefficient of drug interaction (CDI) from relative growth
Assay type: cell-based
Conditions: for CDI (coefficient of drug interaction), copper mixed with biocide: Copper (mM) section
[1] = 1st of 3 copper concentrations (value not shown), 1st of four biocide concentrations
[2] = 1st of 3 copper concentrations (value not shown), 2nd of four biocide concentrations
[3] = 1st of 3 copper concentrations (value not shown), 3rd of four biocide concentrations
[4] = 1st of 3 copper concentrations (value not shown), 4th of four biocide concentrations
[5] = 2nd of 3 copper concentrations (value not shown), 1st of four biocide concentrations
[6] = 2nd of 3 copper concentrations (value not shown), 2nd of four biocide concentrations
[7] = 2nd of 3 copper concentrations (value not shown), 3rd of four biocide concentrations
[8] = 2nd of 3 copper concentrations (value not shown), 4th of four biocide concentrations
[9] = 3rd of 3 copper concentrations (value not shown), 1st of four biocide concentrations
[10] = 3rd of 3 copper concentrations (value not shown), 2nd of four biocide concentrations
[11] = 3rd of 3 copper concentrations (value not shown), 3rd of four biocide concentrations
[12] = 3rd of 3 copper concentrations (value not shown), 4th of four biocide concentrations
[13] = Gold section of Table 5, first of three gold concentrations (μM, value not given), biocide concentration 1 of 4
[14] = Gold section of Table 5, first of three gold concentrations (μM, value not given), biocide concentration 2 of 4
[15] = Gold section of Table 5, first of three gold concentrations (μM, value not given), biocide concentration 3 of 4
[16] = Gold section of Table 5, first of three gold concentrations (μM, value not given), biocide concentration 4 of 4
[17] = Gold section of Table 5, second of three gold concentrations (μM, value not given), biocide concentration 1 of 4
[18] = Gold section of Table 5, second of three gold concentrations (μM, value not given), biocide concentration 2 of 4
[19] = Gold section of Table 5, second of three gold concentrations (μM, value not given), biocide concentration 3 of 4
[20] = Gold section of Table 5, second of three gold concentrations (μM, value not given), biocide concentration 4 of 4
[21] = Gold section of Table 5, third of three gold concentrations (μM, value not given), biocide concentration 1 of 4
[22] = Gold section of Table 5, third of three gold concentrations (μM, value not given), biocide concentration 2 of 4
[23] = Gold section of Table 5, third of three gold concentrations (μM, value not given), biocide concentration 3 of 4
[24] = Gold section of Table 5, third of three gold concentrations (μM, value not given), biocide concentration 4 of 4
[25] = Silver 0.5 μM, 4th of four biocide concentrations, E. coli
[26] = Silver 1.0 μM, 4th of four biocide concentrations, E. coli
[27] = Silver 5.0 μM, 4th of four biocide concentrations, E. coli
[28] = Gold 50 μM, biocide concentration 4 of 4, E. coli
[29] = Silver 0.5 μM, 1st of four biocide concentrations, E. coli
[30] = Silver 0.5 μM, 2nd of four biocide concentrations, E. coli
[31] = Silver 0.5 μM, 3rd of four biocide concentrations, E. coli
[32] = Silver 1.0 μM, 1st of four biocide concentrations, E. coli
[33] = Silver 1.0 μM, 2nd of four biocide concentrations, E. coli
[34] = Silver 1.0 μM, 3rd of four biocide concentrations, E. coli
[35] = Silver 5.0 μM, 2nd of four biocide concentrations, E. coli
[36] = Silver 5.0 μM, 3rd of four biocide concentrations, E. coli

CN[C@@H]1[C@@H](O)[C@@H](O[C@@H]2[C@@H](O)[C@H](O[C@H]3O[C@H]([C@@H](C)O)[C@@H](O)[C@H](O)[C@H]3N)[C@@H](N)C[C@H]2N)OC[C@]1(C)O [geneticin (G418)]
CDI (coefficient of drug interaction), copper mixed with biocide [1]: 0.97
CDI (coefficient of drug interaction), copper mixed with biocide [2]: 0.87
CDI (coefficient of drug interaction), copper mixed with biocide [3]: 0.86
CDI (coefficient of drug interaction), copper mixed with biocide [4]: 0.88
CDI (coefficient of drug interaction), copper mixed with biocide [5]: 0.73
CDI (coefficient of drug interaction), copper mixed with biocide [6]: 0.71
CDI (coefficient of drug interaction), copper mixed with biocide [7]: 0.71
CDI (coefficient of drug interaction), copper mixed with biocide [8]: Tox
CDI (coefficient of drug interaction), copper mixed with biocide [9]: 0.54
CDI (coefficient of drug interaction), copper mixed with biocide [10]: 0.50
CDI (coefficient of drug interaction), copper mixed with biocide [11]: 0.48
CDI (coefficient of drug interaction), copper mixed with biocide [12]: 0.44
CDI (coefficient of drug interaction) [13]: 1.08
CDI (coefficient of drug interaction) [14]: 1.00
CDI (coefficient of drug interaction) [15]: 1.01
CDI (coefficient of drug interaction) [16]: 0.95
CDI (coefficient of drug interaction) [17]: 1.05
CDI (coefficient of drug interaction) [18]: 1.03
CDI (coefficient of drug interaction) [19]: 1.00
CDI (coefficient of drug interaction) [20]: 1.02
CDI (coefficient of drug interaction) [21]: 1.05
CDI (coefficient of drug interaction) [22]: 1.04
CDI (coefficient of drug interaction) [23]: 1.05
CDI (coefficient of drug interaction) [24]: 1.11
CDI (Silver 0.5 μM, biocide concentration 1 of 4): 1.04
CDI (Silver 0.5 μM, biocide concentration 2 of 4): 0.96
CDI (Silver 0.5 μM, biocide concentration 3 of 4): 0.76
CDI (Silver 0.5 μM, biocide concentration 4 of 4): Tox
CDI (Silver 1.0 μM, biocide concentration 1 of 4): 0.94
CDI (Silver 1.0 μM, biocide concentration 2 of 4): 0.82
CDI (Silver 1.0 μM, biocide concentration 3 of 4): 0.31
CDI (Silver 1.0 μM, biocide concentration 4 of 4): Tox
CDI (Silver 5.0 μM, biocide concentration 1 of 4): 0.48
CDI (Silver 5.0 μM, biocide concentration 2 of 4): 0.49
CDI (Silver 5.0 μM, biocide concentration 3 of 4): 0.23
CDI (Silver 5.0 μM, biocide concentration 4 of 4): Tox

O=C1C2CC=CCC2C(=O)N1SC(Cl)(Cl)Cl (centres unmarked) [captan]
CDI (coefficient of drug interaction), silver + biocide [25]: Tox
CDI (coefficient of drug interaction), silver + biocide [26]: Tox
CDI (coefficient of drug interaction), silver + biocide [27]: Tox

O=C1OC(CN2CCOCC2)CN1/N=C/c1ccc([N+](=O)[O-])o1 (centres unmarked) [furaltadone]
CDI (coefficient of drug interaction) [28]: Tox

CCCCCCCC[N+](C)(CCCCCCCC)CCCCCCCC.[Br-] [Methyltrioctyl NH4+ Br−]
CDI (coefficient of drug interaction), copper mixed with biocide [1]: 1.05
CDI (coefficient of drug interaction), copper mixed with biocide [2]: 1.22
CDI (coefficient of drug interaction), copper mixed with biocide [3]: 1.39
CDI (coefficient of drug interaction), copper mixed with biocide [4]: Tox
CDI (coefficient of drug interaction), copper mixed with biocide [5]: 1.08
CDI (coefficient of drug interaction), copper mixed with biocide [6]: 1.14
CDI (coefficient of drug interaction), copper mixed with biocide [7]: 1.05
CDI (coefficient of drug interaction), copper mixed with biocide [8]: Tox
CDI (coefficient of drug interaction), copper mixed with biocide [9]: 0.87
CDI (coefficient of drug interaction), copper mixed with biocide [10]: 0.80
CDI (coefficient of drug interaction), copper mixed with biocide [11]: 0.44
CDI (coefficient of drug interaction), copper mixed with biocide [12]: Tox
CDI (coefficient of drug interaction) [13]: 1.06
CDI (coefficient of drug interaction) [14]: 1.05
CDI (coefficient of drug interaction) [15]: 1.00
CDI (coefficient of drug interaction) [16]: Tox
CDI (coefficient of drug interaction) [17]: 1.14
CDI (coefficient of drug interaction) [18]: 0.98
CDI (coefficient of drug interaction) [19]: 0.37
CDI (coefficient of drug interaction) [20]: Tox
CDI (coefficient of drug interaction) [21]: 0.96
CDI (coefficient of drug interaction) [22]: 1.01
CDI (coefficient of drug interaction) [23]: 0.91
CDI (coefficient of drug interaction) [24]: Tox
CDI (coefficient of drug interaction), silver + biocide [29]: 1.01
CDI (coefficient of drug interaction), silver + biocide [30]: 0.90
CDI (coefficient of drug interaction), silver + biocide [31]: Tox
CDI (coefficient of drug interaction), silver + biocide [25]: Tox
CDI (coefficient of drug interaction), silver + biocide [32]: 1.04
CDI (coefficient of drug interaction), silver + biocide [33]: 1.09
CDI (coefficient of drug interaction), silver + biocide [34]: Tox
CDI (coefficient of drug interaction), silver + biocide [26]: Tox
CDI (coefficient of drug interaction), silver + biocide (Silver 5.0 μM, 1st of four biocide concentrations, E. coli): 1.66
CDI (coefficient of drug interaction), silver + biocide [35]: 1.73
CDI (coefficient of drug interaction), silver + biocide [36]: Tox
CDI (coefficient of drug interaction), silver + biocide [27]: Tox

CCn1cc(C(=O)O)c(=O)c2cc(F)c(N3CCNCC3)nc21 [enoxacin]
CDI (coefficient of drug interaction) (Gold 50 μM, biocide concentration 3 of 4, E. coli): Tox
CDI (coefficient of drug interaction) [28]: Tox

poly-L-lysine
CDI (coefficient of drug interaction), copper mixed with biocide [1]: 1.15
CDI (coefficient of drug interaction), copper mixed with biocide [2]: 0.95
CDI (coefficient of drug interaction), copper mixed with biocide [3]: Tox
CDI (coefficient of drug interaction), copper mixed with biocide [4]: Tox
CDI (coefficient of drug interaction), copper mixed with biocide [5]: 1.03
CDI (coefficient of drug interaction), copper mixed with biocide [6]: 0.96
CDI (coefficient of drug interaction), copper mixed with biocide [7]: Tox
CDI (coefficient of drug interaction), copper mixed with biocide [8]: Tox
CDI (coefficient of drug interaction), copper mixed with biocide [10]: 0.59
CDI (coefficient of drug interaction), copper mixed with biocide [11]: Tox
CDI (coefficient of drug interaction), copper mixed with biocide [12]: Tox
CDI (coefficient of drug interaction) [13]: 1.07
CDI (coefficient of drug interaction) [14]: 0.98
CDI (coefficient of drug interaction) [15]: Tox
CDI (coefficient of drug interaction) [16]: Tox
CDI (coefficient of drug interaction) [17]: 1.08
CDI (coefficient of drug interaction) [18]: 1.06
CDI (coefficient of drug interaction) [19]: Tox
CDI (coefficient of drug interaction) [20]: Tox
CDI (coefficient of drug interaction) [21]: 0.93
CDI (coefficient of drug interaction) [22]: 0.88
CDI (coefficient of drug interaction) [23]: Tox
CDI (coefficient of drug interaction) [24]: Tox
CDI (coefficient of drug interaction), silver + biocide [29]: 0.92
CDI (coefficient of drug interaction), silver + biocide [30]: 0.96
CDI (coefficient of drug interaction), silver + biocide [31]: Tox
CDI (coefficient of drug interaction), silver + biocide [25]: Tox
CDI (coefficient of drug interaction), silver + biocide [32]: 0.88
CDI (coefficient of drug interaction), silver + biocide [33]: 0.88
CDI (coefficient of drug interaction), silver + biocide [34]: Tox
CDI (coefficient of drug interaction), silver + biocide [26]: Tox
CDI (coefficient of drug interaction), silver + biocide [36]: Tox
CDI (coefficient of drug interaction), silver + biocide [27]: Tox

O=C(O)c1ccccc1S [thiosalicylic acid]
CDI (coefficient of drug interaction), silver + biocide [25]: Tox
CDI (coefficient of drug interaction), silver + biocide [26]: Tox
CDI (coefficient of drug interaction), silver + biocide [27]: Tox

CCn1cc(C(=O)O)c(=O)c2ccc(C)nc21 [Nalidixic Acid]
CDI (coefficient of drug interaction), copper mixed with biocide [3]: Tox
CDI (coefficient of drug interaction), copper mixed with biocide [4]: Tox
CDI (coefficient of drug interaction), copper mixed with biocide [7]: Tox
CDI (coefficient of drug interaction), copper mixed with biocide [8]: Tox
CDI (coefficient of drug interaction), copper mixed with biocide [11]: Tox
CDI (coefficient of drug interaction), copper mixed with biocide [12]: Tox
CDI (coefficient of drug interaction) [15]: Tox
CDI (coefficient of drug interaction) [16]: Tox
CDI (coefficient of drug interaction) [19]: Tox
CDI (coefficient of drug interaction) [20]: Tox
CDI (coefficient of drug interaction) [23]: Tox
CDI (coefficient of drug interaction) [24]: Tox
CDI (coefficient of drug interaction), silver + biocide [31]: Tox
CDI (coefficient of drug interaction), silver + biocide [25]: Tox
CDI (coefficient of drug interaction), silver + biocide [34]: Tox
CDI (coefficient of drug interaction), silver + biocide [26]: Tox
CDI (coefficient of drug interaction), silver + biocide [36]: Tox
CDI (coefficient of drug interaction), silver + biocide [27]: Tox

Cc1cc(O)cc(C)c1Cl [chloroxylenol]
CDI (coefficient of drug interaction), copper mixed with biocide [6]: Tox
CDI (coefficient of drug interaction), copper mixed with biocide [7]: Tox
CDI (coefficient of drug interaction), copper mixed with biocide [8]: Tox
CDI (coefficient of drug interaction) [15]: Tox
CDI (coefficient of drug interaction) [16]: Tox
CDI (coefficient of drug interaction) [19]: Tox
CDI (coefficient of drug interaction) [20]: Tox
CDI (coefficient of drug interaction) [23]: Tox
CDI (coefficient of drug interaction) [24]: Tox
CDI (coefficient of drug interaction), silver + biocide [31]: Tox
CDI (coefficient of drug interaction), silver + biocide [25]: Tox
CDI (coefficient of drug interaction), silver + biocide [33]: Tox
CDI (coefficient of drug interaction), silver + biocide [34]: Tox
CDI (coefficient of drug interaction), silver + biocide [26]: Tox
CDI (coefficient of drug interaction), silver + biocide [35]: Tox
CDI (coefficient of drug interaction), silver + biocide [36]: Tox
CDI (coefficient of drug interaction), silver + biocide [27]: Tox
